Our source for the spheroid integrity and loss of viability values is patent US11261210B2, “Glycosylated antitumor ether lipids as novel cancer stem cell cytotoxic agents” (UNIVERSITY OF MANITOBA, priority 2012, dated 2022).

Series [1] concerns BT-474 stem cell spheroids. Kind of series: Morphology of BT-474 stem cell spheroids under static conditions. In kind it is cell-based, human. The note with it: after 72 h treatment, FIG. 5A. The procedure:
FIG. 5. A. Effect of β-O-Gln, C-Gln or ET-18-OCH3 on morphology of JIMT1 stem cell spheroids. B. Effect of β-O-Gln, α-O-Gln or ET-18-OCH3 on morphology of BT-474 stem cell spheroids. BT-474 cancer stem cells were grown for 7 days in ultra low adhesion 6 well plates. The tumorspheres formed were harvested, trypsinised and cell numbers were determined. Equal numbers of cells were dispersed into 48-well plates in mammocult medium and incubation was under static conditions. After spheres were formed, they were incubated with β-O-Gln, α-O-Gln or β-C-Gln (0, 10, or 30 μM) for 6 days. The medium was replenished after 3 days. Images in FIG. 5A were taken at day 0 and 72 h following addition of the compounds. Images in FIG. 5B were taken after 6 days of incubation with the compounds.
The effects of the GAELs, β-O-Gln, α-O-Gln or C-Gln on the growth and viability of tumorspheres growing under static conditions was also investigated. Studies were also conducted with ET-18-OCH3 as a representative of the ALP subclass and an apoptosis inducing compound. Under static conditions a large number of spheroids are formed in control incubations with the vehicle (0.1% EtOH). […] Complete disintegration is observed after incubation with GAELs for 6 days (FIG. 5B). […] Thus, while some disintegration had occurred it was not as comprehensive as those observed with the GAELs.

Series [2] has as its system BT-474 stem cell tumorspheres. Kind of series: Viability of BT-474 stem cell tumorspheres (MTS assay). In kind it is cell-based, human. As to conditions: 6 days. The procedure: FIG. 6. Effect of β-O-Gln, α-O-Gln, β-C-Gln and ET-18-OCH3 on the viability of BT-474 stem cell tumorspheres. BT-474 cancer stem cells were grown for 7 days in ultra low adhesion 6 well plates. The tumorspheres formed were harvested, trypsinised and cell numbers were determined. Equal numbers of cells were dispersed into 48-well plates in mammocult medium and incubation was under static conditions. Wells with only medium but no cells were treated in an identical manner to serve as blanks. After spheres were formed, β-O-Gln, α-O-Gln, β-C-Gln or ET-18-OCH3 (0, 10, 20, 30 μM) were added and incubation was for a total of 6 days. At the end of the incubation, the MTS reagent was added to each well and the plates were rotated on a Nutator mixer in a 5% CO2 incubator for 4 h. The absorbance of each well was read at 470 nm. The results are the means±standard deviation of 4 independent determinations.
Cell viability assay: Cell viability was determined by the Cell Titre 96 Aqueous One solution proliferation assay ((MTS assay; Promega) according to the instructions of the manufacturer.
The viability of the material at the end of the incubation was determined using the MTS assay. […] In cells incubated with 10 μM of β-C-Gln, 90% of the cells were not viable. […] In contrast, in experiments with ET-18-OCH3, 10 or 20 μM ET-18-OCH3 had little effect on the viability of BT-474 spheroids and at a concentration of 30 μM viability was around 45% relative to controls. The results of the integrity studies correlate well with the viability studies.
We also investigated the effect of α-O-Galn, β-O-Galn or α-O-Mann on the viability of BT-474 spheroids. The spheroids were incubated with the compounds for 6 days and the viability was assessed by the MTS assay. […] Viability was down to around 10% at 10 μM concentration of the compound. […] At a concentration of 30 μM a significant proportion (26-32%) of the BT-474 cancer stem cells were still viable. The cytotoxic efficacy of GAELs is dependent on the type of sugar moiety and the anomeric form in some instances.
On the technique in general: Tetrazolium assays rely on reduction of a dye to a coloured formazan, in cell work by metabolically active cells.

Take `CCCCCCCCCCCCCCCCOC[C@H](CO[C@@H]1O[C@H](CO)[C@@H](O)[C@H](O)[C@H]1N)OC` [β-O-Gln, 1-O-hexadecyl-2-O-methyl-3-O-(2′-amino-2′-deoxy-β-D-glucopyranosyl)-sn-glycerol]: the spheroid integrity entry in series [1] is “significant disintegration”. Moreover, the loss of viability entry in series [2] (10 μM) was “about 60%”; in series [2] (20 or 30 μM) it was “total loss of viability”.
